Data taken from ChEMBL document CHEMBL1201862, “PubChem BioAssay data set” (2004).
Calls of active or inactive are those of the source.

How the values were obtained:
[1] = molecular target: Peroxisome proliferator-activated receptor gamma/Nuclear receptor coactivator 3 (Homo sapiens, UniProt P37231); type: functional;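 further: agonist potency for raising coactivator recruitment to the receptor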
[2] = molecular target: Peroxisome proliferator-activated receptor gamma/Nuclear receptor coactivator 1 (Homo sapiens, UniProt P37231); type: functional;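 further: agonist potency as compounds enhance coactivator SRC-1 recruitment to PPARgamma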
Sequence of Peroxisome proliferator-activated receptor gamma/Nuclear receptor coactivator 1 (P37231 whole entry): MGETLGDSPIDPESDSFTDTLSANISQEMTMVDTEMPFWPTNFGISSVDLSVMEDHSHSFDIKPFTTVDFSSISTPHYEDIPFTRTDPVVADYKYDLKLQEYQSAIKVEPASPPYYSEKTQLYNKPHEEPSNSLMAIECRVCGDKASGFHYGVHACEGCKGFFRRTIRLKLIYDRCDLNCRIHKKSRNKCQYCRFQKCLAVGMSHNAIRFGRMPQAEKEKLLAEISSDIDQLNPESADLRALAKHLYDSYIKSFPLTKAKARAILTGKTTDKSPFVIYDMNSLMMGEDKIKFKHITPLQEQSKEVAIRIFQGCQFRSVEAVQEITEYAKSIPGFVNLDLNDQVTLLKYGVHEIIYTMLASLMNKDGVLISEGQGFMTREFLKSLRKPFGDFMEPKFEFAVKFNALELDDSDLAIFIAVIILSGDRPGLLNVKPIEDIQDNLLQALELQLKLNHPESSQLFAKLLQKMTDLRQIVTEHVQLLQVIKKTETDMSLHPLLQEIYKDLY
Sequence of Peroxisome proliferator-activated receptor gamma/Nuclear receptor coactivator 1 (Q15788 whole entry, further chain): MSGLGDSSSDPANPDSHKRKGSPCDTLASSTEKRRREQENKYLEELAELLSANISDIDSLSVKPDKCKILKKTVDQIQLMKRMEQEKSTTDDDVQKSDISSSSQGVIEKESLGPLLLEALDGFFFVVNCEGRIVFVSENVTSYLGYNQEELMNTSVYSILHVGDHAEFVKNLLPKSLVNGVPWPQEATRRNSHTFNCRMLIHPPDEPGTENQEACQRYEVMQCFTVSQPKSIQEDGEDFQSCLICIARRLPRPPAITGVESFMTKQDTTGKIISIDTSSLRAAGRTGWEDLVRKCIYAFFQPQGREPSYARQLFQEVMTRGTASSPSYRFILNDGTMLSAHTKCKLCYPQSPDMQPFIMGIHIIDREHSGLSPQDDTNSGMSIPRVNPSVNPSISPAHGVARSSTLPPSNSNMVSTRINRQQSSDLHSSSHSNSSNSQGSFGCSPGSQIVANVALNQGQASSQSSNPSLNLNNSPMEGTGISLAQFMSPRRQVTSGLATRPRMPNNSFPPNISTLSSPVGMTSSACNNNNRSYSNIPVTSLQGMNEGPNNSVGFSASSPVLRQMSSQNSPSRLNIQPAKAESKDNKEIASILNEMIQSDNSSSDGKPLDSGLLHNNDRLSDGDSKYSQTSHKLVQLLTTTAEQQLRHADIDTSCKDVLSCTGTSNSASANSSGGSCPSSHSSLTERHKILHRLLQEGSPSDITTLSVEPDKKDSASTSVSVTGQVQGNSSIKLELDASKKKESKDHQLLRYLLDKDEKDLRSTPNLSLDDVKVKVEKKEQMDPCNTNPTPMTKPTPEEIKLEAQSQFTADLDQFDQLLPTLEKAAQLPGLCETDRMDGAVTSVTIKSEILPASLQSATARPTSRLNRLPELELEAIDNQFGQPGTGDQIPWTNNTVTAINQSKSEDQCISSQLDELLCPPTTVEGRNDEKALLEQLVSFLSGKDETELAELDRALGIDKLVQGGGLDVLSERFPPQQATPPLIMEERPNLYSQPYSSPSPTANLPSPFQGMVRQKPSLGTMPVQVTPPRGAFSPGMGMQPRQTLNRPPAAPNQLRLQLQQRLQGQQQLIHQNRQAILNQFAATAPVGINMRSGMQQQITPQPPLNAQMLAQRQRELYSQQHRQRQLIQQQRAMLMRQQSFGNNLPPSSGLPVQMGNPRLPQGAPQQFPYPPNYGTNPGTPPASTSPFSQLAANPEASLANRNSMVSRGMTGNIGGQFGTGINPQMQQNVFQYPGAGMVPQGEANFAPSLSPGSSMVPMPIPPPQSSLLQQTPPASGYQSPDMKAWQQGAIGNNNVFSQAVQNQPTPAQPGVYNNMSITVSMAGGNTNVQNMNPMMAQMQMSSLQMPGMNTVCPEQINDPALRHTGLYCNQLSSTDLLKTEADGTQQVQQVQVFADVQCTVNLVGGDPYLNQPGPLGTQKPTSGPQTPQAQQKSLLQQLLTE

[3] = molecular target: Peroxisome proliferator-activated receptor gamma/Nuclear receptor coactivator 2 (Homo sapiens, UniProt P37231); type: functional;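 further: agonist potency for raising coactivator recruitment to the receptor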
[4] = IC50 of Artemis nuclease activity blockers – biochemical, fluorescence intensity, dose response (AID 720701); type: functional;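 further: Artemis endonuclease enzyme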
Hexokinase HKDC1 = molecular target: T1, Hexokinase HKDC1 (Homo sapiens, UniProt Q2TB90); test: inhibition of HKDC1 glucose phosphorylation – biochemical, W721R variant, dose response (AID 504729); type: functional
T1 sequence (Q2TB90 whole entry): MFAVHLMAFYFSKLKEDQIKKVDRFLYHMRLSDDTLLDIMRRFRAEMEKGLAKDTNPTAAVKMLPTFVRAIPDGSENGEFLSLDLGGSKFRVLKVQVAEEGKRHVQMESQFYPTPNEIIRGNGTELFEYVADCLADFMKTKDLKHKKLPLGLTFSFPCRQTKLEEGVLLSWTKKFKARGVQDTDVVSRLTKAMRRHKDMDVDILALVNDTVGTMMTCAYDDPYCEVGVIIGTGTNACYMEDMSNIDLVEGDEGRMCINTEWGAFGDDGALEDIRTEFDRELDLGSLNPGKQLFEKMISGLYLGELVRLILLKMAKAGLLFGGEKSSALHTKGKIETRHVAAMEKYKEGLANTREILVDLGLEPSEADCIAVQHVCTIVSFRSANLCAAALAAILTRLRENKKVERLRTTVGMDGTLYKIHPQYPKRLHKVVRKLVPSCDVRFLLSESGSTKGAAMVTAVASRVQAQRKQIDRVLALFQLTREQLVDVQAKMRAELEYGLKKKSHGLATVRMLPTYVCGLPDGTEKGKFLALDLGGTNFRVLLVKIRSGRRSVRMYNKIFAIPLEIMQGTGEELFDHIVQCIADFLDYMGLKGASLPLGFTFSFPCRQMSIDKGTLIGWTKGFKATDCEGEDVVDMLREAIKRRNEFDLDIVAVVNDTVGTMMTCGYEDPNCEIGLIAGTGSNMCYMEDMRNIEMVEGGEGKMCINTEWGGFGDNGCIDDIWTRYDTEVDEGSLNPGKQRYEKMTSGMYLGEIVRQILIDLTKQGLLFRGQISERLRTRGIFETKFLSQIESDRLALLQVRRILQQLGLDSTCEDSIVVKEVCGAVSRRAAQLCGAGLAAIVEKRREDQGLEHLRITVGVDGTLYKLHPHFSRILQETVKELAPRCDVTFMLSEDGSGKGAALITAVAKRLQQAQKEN

[5] = molecular target: T2, Apoptotic protease-activating factor 1 (Homo sapiens, UniProt O14727); type: functional
T2 sequence (O14727 whole entry): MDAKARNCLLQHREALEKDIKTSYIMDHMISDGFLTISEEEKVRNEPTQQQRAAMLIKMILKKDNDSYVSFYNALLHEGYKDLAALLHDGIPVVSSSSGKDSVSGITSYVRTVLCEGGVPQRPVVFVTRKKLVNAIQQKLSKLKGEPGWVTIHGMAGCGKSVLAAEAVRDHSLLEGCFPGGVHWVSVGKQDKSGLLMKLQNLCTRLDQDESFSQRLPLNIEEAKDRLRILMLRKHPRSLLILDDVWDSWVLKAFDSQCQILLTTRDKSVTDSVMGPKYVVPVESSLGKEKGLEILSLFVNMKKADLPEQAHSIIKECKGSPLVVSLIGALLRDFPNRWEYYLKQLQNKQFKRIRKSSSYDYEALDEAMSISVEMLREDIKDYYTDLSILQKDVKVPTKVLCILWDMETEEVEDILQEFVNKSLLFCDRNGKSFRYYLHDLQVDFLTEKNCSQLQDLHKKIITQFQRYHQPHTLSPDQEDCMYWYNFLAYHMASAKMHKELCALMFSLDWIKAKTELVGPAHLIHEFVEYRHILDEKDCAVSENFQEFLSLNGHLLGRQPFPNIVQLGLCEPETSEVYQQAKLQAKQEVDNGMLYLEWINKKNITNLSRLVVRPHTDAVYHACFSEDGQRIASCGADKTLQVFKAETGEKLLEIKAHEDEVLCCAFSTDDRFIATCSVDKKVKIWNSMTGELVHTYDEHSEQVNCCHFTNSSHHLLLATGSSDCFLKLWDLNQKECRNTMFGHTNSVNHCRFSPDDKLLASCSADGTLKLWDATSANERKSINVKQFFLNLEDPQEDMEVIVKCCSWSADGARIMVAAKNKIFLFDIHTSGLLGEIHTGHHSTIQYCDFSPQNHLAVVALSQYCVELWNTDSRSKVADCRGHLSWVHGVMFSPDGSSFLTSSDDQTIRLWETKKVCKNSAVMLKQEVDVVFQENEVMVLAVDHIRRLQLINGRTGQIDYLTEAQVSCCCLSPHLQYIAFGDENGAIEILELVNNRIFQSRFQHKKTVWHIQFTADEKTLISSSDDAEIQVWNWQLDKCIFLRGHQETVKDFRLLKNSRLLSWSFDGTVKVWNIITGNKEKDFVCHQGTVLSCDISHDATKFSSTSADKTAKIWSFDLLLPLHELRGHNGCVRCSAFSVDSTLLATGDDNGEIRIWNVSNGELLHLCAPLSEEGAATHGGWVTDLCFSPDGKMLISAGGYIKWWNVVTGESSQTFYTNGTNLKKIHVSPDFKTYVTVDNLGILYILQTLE

BJ [6] = test: cells; type: functional, cell-based; conditions: Homo sapiens
HT-1080 = test: HT1080 cell viability loss – fluorescence readout (AID 620); type: functional, cell-based; conditions: Homo sapiens
BJ [7] = test: BJ-TERT-LT-ST fibroblast viability loss – cell-based, RAS-independent, luminescence, dose response (AID 1935); type: functional; conditions: Homo sapiens;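 further: BJ fibroblasts immortalized with TERT plus LT and ST oncogenes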
[8] = luciferase reporter signal suppression in cells – H4 neuroglioma cells, luminescence, dose response (AID 1990); type: functional, cell-based
[9] = molecular target: Mitochondrial peptide methionine sulfoxide reductase (Bos taurus, UniProt P54149); type: functional;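 further: absorbance read-out, biochemical high-throughput dose-response screen for MsrA inhibitors, confirmatory; recombinant bovine MsrA coupled to E. coli TrxB with NADPH and selenocystamine; potency is for inhibitors of MsrA activity on DMSO substrate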
Sequence of Mitochondrial peptide methionine sulfoxide reductase (P54149 whole entry): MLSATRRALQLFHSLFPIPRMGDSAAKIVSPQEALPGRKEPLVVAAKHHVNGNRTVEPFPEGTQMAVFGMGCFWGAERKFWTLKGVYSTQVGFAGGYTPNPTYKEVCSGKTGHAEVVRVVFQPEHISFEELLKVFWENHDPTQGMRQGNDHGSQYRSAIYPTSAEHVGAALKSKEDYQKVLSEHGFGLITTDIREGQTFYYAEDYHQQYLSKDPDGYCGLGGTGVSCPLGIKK

[10] = molecular target: Luciferin 4-monooxygenase (Photinus pyralis, UniProt P08659); test: Counter Screen for Luciferase-based Assay Positives. [Related pubchem assays: 620, 618, 411 ]
Sequence of Luciferin 4-monooxygenase (P08659 whole entry): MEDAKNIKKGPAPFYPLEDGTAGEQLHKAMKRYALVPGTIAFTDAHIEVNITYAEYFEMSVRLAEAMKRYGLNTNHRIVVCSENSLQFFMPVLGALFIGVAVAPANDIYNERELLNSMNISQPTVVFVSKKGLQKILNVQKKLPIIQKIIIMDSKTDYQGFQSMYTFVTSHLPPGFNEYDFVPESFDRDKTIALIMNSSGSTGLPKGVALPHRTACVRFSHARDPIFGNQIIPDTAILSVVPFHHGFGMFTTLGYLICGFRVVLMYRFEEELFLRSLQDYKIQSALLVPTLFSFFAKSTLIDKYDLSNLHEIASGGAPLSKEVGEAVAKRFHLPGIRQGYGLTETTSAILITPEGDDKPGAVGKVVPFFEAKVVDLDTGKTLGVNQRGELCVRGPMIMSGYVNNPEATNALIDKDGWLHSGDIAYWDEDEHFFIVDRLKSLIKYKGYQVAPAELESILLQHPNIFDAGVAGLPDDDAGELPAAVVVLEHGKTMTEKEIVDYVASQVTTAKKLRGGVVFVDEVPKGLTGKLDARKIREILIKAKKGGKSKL

BJ [11] = test: BJ-TERT fibroblast viability loss – cell-based, RAS-independent, luminescence, dose response (AID 1933); type: functional; conditions: Homo sapiens
[12] = molecular target: Tyrosyl-DNA phosphodiesterase 2 (Homo sapiens, UniProt O95551); test: potency against TDP2 phosphodiesterase activity – biochemical, epi absorbance, IC50, dose response (AID 743297)
Sequence of Tyrosyl-DNA phosphodiesterase 2 (O95551 whole entry): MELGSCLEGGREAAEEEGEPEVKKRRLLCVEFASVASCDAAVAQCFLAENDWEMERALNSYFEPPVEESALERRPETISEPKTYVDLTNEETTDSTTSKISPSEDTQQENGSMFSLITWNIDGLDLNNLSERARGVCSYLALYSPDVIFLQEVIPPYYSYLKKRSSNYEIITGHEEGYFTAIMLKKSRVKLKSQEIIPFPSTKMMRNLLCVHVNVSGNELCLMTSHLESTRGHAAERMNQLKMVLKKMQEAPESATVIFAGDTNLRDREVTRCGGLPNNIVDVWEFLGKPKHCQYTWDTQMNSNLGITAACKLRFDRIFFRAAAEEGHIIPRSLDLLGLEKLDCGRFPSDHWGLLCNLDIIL

[13] = molecular target: Mothers against decapentaplegic homolog 3 (Homo sapiens, UniProt P84022); test: inhibitors of SMAD-driven TGF-beta signaling – dose response (AID 715); type: functional
Sequence of Mothers against decapentaplegic homolog 3 (P84022 whole entry): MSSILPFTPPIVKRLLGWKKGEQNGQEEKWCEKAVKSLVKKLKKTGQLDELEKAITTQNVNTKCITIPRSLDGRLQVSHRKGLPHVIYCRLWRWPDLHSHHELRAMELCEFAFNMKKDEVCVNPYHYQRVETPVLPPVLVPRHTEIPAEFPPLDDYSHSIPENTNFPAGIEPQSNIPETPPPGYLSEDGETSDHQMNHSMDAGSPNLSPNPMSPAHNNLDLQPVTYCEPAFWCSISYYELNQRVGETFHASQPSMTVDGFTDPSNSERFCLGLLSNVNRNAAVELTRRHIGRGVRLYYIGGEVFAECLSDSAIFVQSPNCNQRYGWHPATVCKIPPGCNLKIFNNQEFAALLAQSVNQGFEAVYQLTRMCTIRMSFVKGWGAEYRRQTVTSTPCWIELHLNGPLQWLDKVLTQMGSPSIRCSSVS

[14] = Luminescence Cell-Based Dose Response HTS to Identify Inhibitors of 5'UTR Stem-Loop Driven Prion Protein mRNA Translation in H4 Neuroglioblastoma Cells. [Related pubchem assays: 1827 (Project Summary), 1813 (Primary HTS)]; type: functional
[15] = alpha-synuclein stem-loop luciferase translation blockers – H4 neuroglioma cells, luminescence, confirmation (AID 1988); type: functional, cell-based
[16] = DRD fibroblast viability loss – cell-based, non-viral oncogenic, luminescence, dose response (AID 1934); type: functional; conditions: Homo sapiens
[17] = viability loss in THP-1 monocytes – THP-1 cells, cytotoxicity control for Vif-APOBEC3G degradation inhibitor project, dose response (AID 1117359); type: functional; conditions: THP-1
[18] = molecular target: Induced myeloid leukemia cell differentiation protein Mcl-1 (Homo sapiens, UniProt Q07820); type: functional
Sequence of Induced myeloid leukemia cell differentiation protein Mcl-1 (Q07820 whole entry): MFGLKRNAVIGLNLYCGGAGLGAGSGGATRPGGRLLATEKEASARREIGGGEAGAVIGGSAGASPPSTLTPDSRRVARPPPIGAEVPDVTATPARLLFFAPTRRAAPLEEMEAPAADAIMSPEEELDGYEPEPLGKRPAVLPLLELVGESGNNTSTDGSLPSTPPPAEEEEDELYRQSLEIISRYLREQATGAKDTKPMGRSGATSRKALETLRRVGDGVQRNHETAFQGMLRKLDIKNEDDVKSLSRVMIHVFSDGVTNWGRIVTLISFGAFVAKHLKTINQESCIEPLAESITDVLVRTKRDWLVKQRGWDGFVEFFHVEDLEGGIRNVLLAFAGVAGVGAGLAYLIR

[19] = mitochondrial function rescue without frataxin homolog – Friedreich's ataxia, plus single-dose screen, dose response (AID 1465); type: functional;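 further: yeast depleted of Yfh1p frataxin homolog grown on glycerol needing respiration; WST-1 tetrazolium dye reduction as measure of cellular dehydrogenase metabolic activity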
NS3 = NS3 (Hepatitis C virus, UniProt A3EZJ3); test: PubChem AID 2173; design: species or system Hepacivirus hominis
Sequence of NS3 (A3EZJ3 whole entry): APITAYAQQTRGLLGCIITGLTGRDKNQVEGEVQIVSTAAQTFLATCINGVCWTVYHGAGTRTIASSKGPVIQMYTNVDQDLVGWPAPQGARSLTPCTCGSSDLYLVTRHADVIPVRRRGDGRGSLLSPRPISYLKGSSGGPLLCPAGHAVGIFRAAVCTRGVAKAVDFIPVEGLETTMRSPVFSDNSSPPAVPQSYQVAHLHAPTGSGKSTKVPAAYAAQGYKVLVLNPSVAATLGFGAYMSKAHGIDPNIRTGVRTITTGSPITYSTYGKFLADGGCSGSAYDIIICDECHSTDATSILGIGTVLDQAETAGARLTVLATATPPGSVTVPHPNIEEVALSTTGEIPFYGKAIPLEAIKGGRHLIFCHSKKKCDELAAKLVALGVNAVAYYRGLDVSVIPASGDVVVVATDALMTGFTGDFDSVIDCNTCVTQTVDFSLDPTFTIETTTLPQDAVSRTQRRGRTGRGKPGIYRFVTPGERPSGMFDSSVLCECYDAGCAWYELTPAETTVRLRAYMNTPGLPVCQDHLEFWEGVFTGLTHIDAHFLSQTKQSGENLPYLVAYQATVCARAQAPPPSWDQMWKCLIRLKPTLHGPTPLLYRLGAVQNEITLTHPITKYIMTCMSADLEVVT

[20] = molecular target: T3, Mannose-6-phosphate isomerase (Homo sapiens, UniProt P34949); test: MPI inhibition at elevated mannose 6-phosphate – biochemical, fluorescence intensity, high mannose 6-phosphate, primary screen (AID 1220)
T3 sequence (P34949 whole entry): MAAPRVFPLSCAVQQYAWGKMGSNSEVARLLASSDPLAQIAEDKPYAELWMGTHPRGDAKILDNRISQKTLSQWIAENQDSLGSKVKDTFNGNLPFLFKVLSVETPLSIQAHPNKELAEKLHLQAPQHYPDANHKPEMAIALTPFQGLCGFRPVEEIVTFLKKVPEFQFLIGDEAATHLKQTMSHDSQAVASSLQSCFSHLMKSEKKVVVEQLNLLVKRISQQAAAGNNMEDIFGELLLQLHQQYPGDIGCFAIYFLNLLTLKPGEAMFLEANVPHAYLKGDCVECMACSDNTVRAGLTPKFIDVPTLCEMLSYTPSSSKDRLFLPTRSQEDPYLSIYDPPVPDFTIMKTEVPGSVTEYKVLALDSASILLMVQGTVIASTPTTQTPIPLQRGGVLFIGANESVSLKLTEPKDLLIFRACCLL

SMILES: O=C(NC(=S)Nc1ccccc1)c1ccc(Br)o1
- EC50 [1]: 19.9 µM (not active)
- EC50 [2]: 17.6 µM (not active)
- EC50 [3]: 16 µM (not active)

SMILES: O=C1C(N2CCOCC2)=C(n2nnc3ccccc32)C(=O)c2ccccc21
- IC50 [4]: 7.75 µM (active)
- IC50 (Hexokinase HKDC1): 7.01 µM (active)
- IC50 [5]: 4.02 µM (active)
- EC50 (BJ [6]): 5.06 µM (active)
- EC50 (HT-1080): 12.3 µM (active)
- EC50 (BJ [7]): > 150 µM (inconclusive)
- EC50 [8]: > 120 µM (not active)
- IC50 [9]: 9.33 µM (active)
- EC50 [10]: 1.63 µM (active)
- EC50 (BJ [11]): 8.79 µM (active)
- IC50 [12]: 10 µM (inactive)
- IC50 [13]: 22 µM (active)
- EC50 [14]: 8.93 µM (active)
- EC50 [15]: > 120 µM (not active)
- EC50 [16]: 10.5 µM (active)

SMILES: CCN(CC)S(=O)(=O)c1cccc(C(=O)N/N=C/c2ccc(O)c(O)c2O)c1
- CC50 [17]: > 40 µM (active)
- IC50 [18]: 7.33 µM (active)
- EC50 [19]: > 100 µM (active)
- IC50 (NS3): 5.31 µM (active)
- IC50 [20]: 5.36 µM (active)
